The text below walks through data of patent US20230263886A1, “VACCINES, VACCINE PRIMING, AND ANTIGEN DOSE SPARING” (priority 2020, published 2023).

A value given as a limit tells only on which side of the number the result lay.

Series [1] concerns H3N2. The experiment in a line: H3N2-specific IgG by ELISA, dose-sparing study in mice (Example 4). As to conditions: FIG. 26. In general terms: In an ELISA, binding on a coated surface is turned into a signal by an enzyme label.
Description: Sera were analyzed at days 0, 21 and 42 by ELISA for H3N2-specific IgG.
Series [2] is classed as in vivo, C57BL/6J mice. As to the method: Body weights were measured serially.
Series [3] concerns H3N2. As to conditions: including a recombinant influenza antigen.
Description: Sera were analyzed at days 0, 14, and 28 by ELISA for H3N2-specific IgG titers and HI (hemagglutination inhibition) titers, H1N1-specific IgG titers and HI titers, and B/Phuket-specific IgG titers and HI titers. All mice were previously naïve to human influenza.

In the case of `CC1O[C@@H](OC2C(O)[C@@H](NC(=O)CCCCCCCCCCC(=O)O)C(CO)O[C@H]2OC(=O)[C@]23CCC(C)(C)CC2C2=CCC4C5(C)CC[C@H](O)C(C)(C=O)C5CCC4(C)C2(C)CC3O)C(O)C(O)[C@H]1O[C@@H]1OC[C@@H](O)C(O)C1O` (stereo partly shown) [TQL-1055], the “antigen dose-sparing effects, murine antibody response to FLUBLOK” value in the series with H3N2 [1] was “superior antigen dose-sparing effects”. In series [2] (mice receiving TQL-1055), the “body weight after immunization” value is “gained weight steadily”. In the series on H3N2 [3], the “dose sparing for vaccine antigens” value is given as “at least 32 ×”.
Compound QS-21 [reference compound] had a maximum weight loss in series [2] (mice receiving 20 mcg of QS-21) of more than 10%.
